Test [1] relates to A375 (BRAF V600E). In words: Cell proliferation MTT assay. Format: cell-based. Particulars: Homo sapiens. How it is done:
(§1) The synergism and antagonism (CI value) were determined and analyzed using CompuSyn 1.0.
(§2) For cytotoxicity test, normal NHDF (5000 cells/well) and NHEM cell line (3000 cells/well) were planted into 96-well plates. For cell proliferation assay, A375 (1500 cells/well), SK-MEL-28 (3000 cells/well), SK-MEL-2 (4000 cells/well), and HCT116 (1500 cells/well) were planted into 96-well plates, determined concentration of drug was added after culture for 24 h. The viability of the cells was detected within 72 h using MTT solution (5 mg/mL). The absorbance at 570/490 nm was quantified by the use of the microplate reader.

The test system of test [2] is HCT116 (KRAS mut). The test is described as follows: Cell proliferation MTT assay. Particulars: Homo sapiens, HCT-116; MTT, 72 h; read-out: IC50. Format: cell-based. As for the experimental part:
as §1, §2

The subject of test [3] is SK-MEL-2 (NRAS mut). In words: Cell proliferation MTT assay. Particulars: Homo sapiens, SK-MEL-2; MTT, 72 h; read-out: IC50. Format: cell-based. How it is done:
as §1, §2
(In general: Tetrazolium dyes change colour on reduction, which living cells bring about.)

In test [4] the test system is SK-MEL-28 (BRAF V600E). The test is described as follows: Cell proliferation MTT assay. Format: cell-based. Particulars: Homo sapiens. As for the experimental part:
as §1, §2

For test [5], the system named is A375 (BRAF V600E) CDX. In words: Cell-derived xenograft (CDX). Particulars: 50 mg/kg, oral gavage, vs vehicle-treated group. How it is done: (§3) Tumor volume (mm^3) = (length × width × height) × 0.52. SK-MEL-2: n = 10; A375 and SK-MEL-28: n = 8; HCT116: n = 9. b The photographs show tumors from CDX mice treated with vehicle, erianin, vemurafenib, or the combination. c The weight of the tumors was quantified and expressed as the treatment groups compared with the vehicle-treated group. […] The tissue lysates were prepared from CDX tumor tissues in each treatment group. […] Each point represents the IOD values of four quantified data from one mouse. Scale bars: 50 μm.
(§4) The animal experiments were performed according to the guidelines approved by the Zhengzhou University Institutional Animal Care and Use Committee. A375 cell line (1 × 10^7 cell/mouse), SK-MEL-28 cell line (5 × 10^6 cell/mouse), SK-MEL-2 cell (5 × 10^6 cell/mouse), and HCT116 cell line (1 × 10^7 cell/mouse) were injected subcutaneously into the NOD-SCID mice (Vital River Labs, Beijing, China). For the melanoma PDX mice model, the tumor was taken after surgical operation and implanted into the NPG (Vital River Labs, Beijing, China) mice under a sterile environment. For the colorectal cancer PDX mice model, NOD-SCID mice were selected as carriers for tumor growth. The measurement of tumor size was performed twice a week using vernier caliper and the calculation of tumor volume was done according to tumor volume (mm^3) = length × width × height × 0.52.

The subject of test [6] is SK-MEL-28 (BRAF V600E) CDX. The test is described as follows: Cell-derived xenograft (CDX). The conditions noted are these: 50 mg/kg, oral gavage, vs vehicle-treated group. As for the experimental part:
as §3, §4

Test [7] relates to HCT116 (KRAS mut) CDX. The test is described as follows: Cell-derived xenograft (CDX). Format: in vivo, NOD-SCID mice. The conditions noted are these: 50 mg/kg, oral gavage. How it is done:
as §3, §4

In test [8] the test system is SK-MEL-2 (NRAS mut) CDX. The test is described as follows: Cell-derived xenograft (CDX). Format: in vivo, NOD-SCID mice. The conditions noted are these: 50 mg/kg, oral gavage. As for the experimental part: as §3, §4
Test [9] relates to melanoma PDX. The test is described as follows: Patient-derived xenograft (PDX). Format: in vivo. The conditions noted are these: oral gavage; erianin, vemurafenib 50 mg/kg once a day; cobimetinib 5 mg/kg twice a week; within 78 days. How it is done:
Fig. 7 Erianin exerts antitumor efficacy in melanoma and colorectal cancer in vivo. a Tumor pharmacodynamic assay was performed in tumor-bearing NPG mice (tumor has been passaged from melanoma patient to mice for three generations). The photographs show tumors from melanoma PDX mice treated with vehicle or drugs. b The effect of erianin on the volume of PDX tumors over time (within 78 days) was plotted. Vehicle, erianin (50 mg/kg, once a day), vemurafenib (50 mg/kg, once a day), erianin and vemurafenib combination therapy, cobimetinib (5 mg/kg, twice a week) or vemurafenib and cobimetinib combination therapy (once a day and twice a week, respectively) were administered by oral gavage, n = 8 in each group. Tumor volume was measured once a week. […] Scale bars: 20 μm. One-way ANOVA test. ***p < 0.001. e Antitumor efficacy of erianin with or without immunity using B16F10 cell xenograft in C57BL-6J mouse. f, g Trend of tumor volume over time and tumor weight was measured after treatment on the last day of the study.

Test [10] deals with MAPK signaling pathway (phospho-CRAF, phospho-MEK1/2, phospho-ERK1/2). The test is described as follows: Western blotting of MAPK signaling pathway in cells. Background: In western blotting, separated proteins are transferred to a membrane and probed.
Description: Data were shown as means ± S.D. of three independent experiments. The asterisks (*p < 0.05, **p < 0.01, ***p < 0.001) indicate a significant difference in the expression of phosphorylation of ERK1 or ERK2 vs total ERK1 or ERK2 in control and erianin-treated group. g The luminescent ADP detection assay was developed to detect the luminescence signal of ATP-to-ADP using the same concentration kinases and substrates described in above kinase assay.
Protein was quantified using a BCA assay kit and then western blotting was conducted.
The mark [11] stands for this setting: A-375, MTT, 72 h, read-out: IC50.
Setting [12] is: SK-MEL-28, MTT, 72 h, read-out: IC50.

Like-named read-outs stand apart in the source and are kept apart here.

What is called IC50 is the point on the concentration scale where inhibition reaches its midpoint.

Take `CCCS(=O)(=O)Nc1ccc(F)c(C(=O)c2c[nH]c3ncc(-c4ccc(Cl)cc4)cc23)c1F` [Vemurafenib, reference compound]: the IC50 in [1] (setting [11]) is 314 ± 73.7 nM; in test [2], over 20000 nM; in [3] it was over 40000 nM; in test [4] (setting [12]), 344 ± 36.4 nM. For the same compound, the tumor volume entry in [5] was “significant decrease”; in test [6], “significant decrease”; in [9], “did not suppress tumor volume significantly”. Moreover, the “tumor volume and tumor weight” value in test [7] and in test [8] was “poor effect” throughout. The “activation of MAPK signaling pathway (CRAF, MEK1/2, ERK1/2)” value in [10] (SK-MEL-2 and HCT116, 24 h) is on record as “induced the paradoxical activation of MAPK signaling pathway”.
For the compound `CC(C)(C)c1nc(-c2cccc(NS(=O)(=O)c3c(F)cccc3F)c2F)c(-c2ccnc(N)n2)s1` [Dabrafenib], the IC50 in test [1] (A-375, 72 h) is 36.7 ± 9.7 nM; in test [2] it was over 18000 nM; in test [3], over 60000 nM; in [4] (SK-MEL-28, 72 h) it was 41 ± 15.5 nM.
As for `Cn1cnc2c(F)c(Nc3ccc(Br)cc3F)c(C(=O)NOCCO)cc21` [Binimetinib], the IC50 in [1] (setting [11]) turned out to be 60.9 ± 14.4 nM; in [2] it was 509 ± 145 nM; in test [3], 240 ± 81.2 nM; in [4] (setting [12]), 129 ± 28.3 nM.
Take `COC(=O)N[C@@H](C)CNc1nccc(-c2cn(C(C)C)nc2-c2cc(Cl)cc(NS(C)(=O)=O)c2F)n1` [Encorafenib]: the IC50 in test [1] (setting [11]) was 9.5 ± 3.9 nM; in test [2], over 2000 nM; in [3], over 9000 nM; in test [4] (setting [12]), 6.5 ± 1.2 nM.
On to `O=C(c1ccc(F)c(F)c1Nc1ccc(I)cc1F)N1CC(O)([C@@H]2CCCCN2)C1` [Cobimetinib], for which the IC50 in [1] (setting [11]) came to 3.2 ± 1.3 nM; in test [2], 51.3 ± 8.9 nM; in [3] it was 119 ± 38.2 nM; in test [4] (setting [12]), 2.6 ± 0.4 nM. The tumor volume entry in test [9] was “no differences between erianin and cobimetinib”. The “phosphorylation of MEK1/2” value in [10] (SK-MEL-2 and HCT116, 24 h) was “increased phosphorylation of MEK1/2”. The “phosphorylation of ERK1/2” value in [10] (both BRAF V600E and RAS mutant cells, 24 h) was “inhibits phosphorylation of ERK1/2 effectively”.
In the case of `CNc1ncc2cc(-c3cc(NC(=O)NCCC(C)(C)C)c(F)cc3C)c(C)nc2n1` [LY3009120], in [10] (low dose, 24 h), the “kinase activity of CRAF (phosphorylation of CRAF and MEK1/2)” value was “induced kinase activity of CRAF at a low dose”.
On to `CC(=O)Nc1cccc(-n2c(=O)n(C3CC3)c(=O)c3c(Nc4ccc(I)cc4F)n(C)c(=O)c(C)c32)c1` [Trametinib], for which the IC50 stood at 2.2 ± 0.8 nM in test [1] (setting [11]), 22.1 ± 9.2 nM in test [2], 50.6 ± 1.7 nM in test [3] and 1.9 ± 0.2 nM in test [4] (setting [12]).

Source of the values: publication PMC9986241 (Signal Transduction and Targeted Therapy, 2023).
